Patent US12655173B2, “Hybrid amide derivatives of amphotericin B” (priority 2020, dated 2026)
Values after ≈ are worked out from the molar mass of the structure shown.

How the values were obtained:
A. thermomutatus = experiment: MIC against moulds; format: cell-based; details: for MIC A. thermomutatus: 6 isolates, AmB (AmBisome)
CEA10 (clinical isolate) = experiment: MIC against azole and echinocandin resistant fungal strains (CLSI); format: cell-based, A. funigatus; details: read-out: MIC CEA10
Protocol: This experiment was performed following the standard CLSI protocol.

Solubility in D5W = details: solubility in D5W

Structure (SMILES): C[C@@H]1[C@H](O)[C@@H](C)/C=C/C=C/C=C/C=C/C=C/C=C/C=C/[C@H](OC2O[C@H](C)[C@@H](O)[C@H](N)[C@@H]2O)C[C@@H]2O[C@](O)(C[C@@H](O)C[C@@H](O)[C@H](O)CC[C@@H](O)C[C@@H](O)CC(=O)O[C@H]1C)C[C@H](O)[C@H]2C(=O)O (stereo partly drawn) [AmB, Amphotericin B]
- MIC (A. thermomutatus; Aspergillus thermomutatus, read-out: MIC A. thermomutatus): 0.6 µM (≈ 0.554 µg/mL)

Structure (SMILES): C[C@@H](c1ncncc1F)[C@](O)(Cn1cncn1)c1ccc(F)cc1F [Voriconazole]
- MIC (CEA10 (clinical isolate)): 1.43 µM (≈ 0.5 µg/mL)

Structure (SMILES): CC1C=CC=CC=CC=CC=CC=CC=CC(OC2OC(C)C(O)C(N)C2O)CC2OC(O)(CC(O)CC(O)C(O)CCC(O)CC(O)CC(=O)OC(C)C(C)C1O)CC(O)C2C(=O)NC(CO)(CO)CO (stereo not drawn) [Compound 2]
- MIC A. thermomutatus (A. thermomutatus): 2.1 µM (≈ 2.16 µg/mL)
- Fold of Increase w.r.t. AmB (Solubility in D5W): 15.9

Structure (SMILES): CC1C=CC=CC=CC=CC=CC=CC=CC(OC2OC(C)C(O)C(N)C2O)CC2OC(O)(CC(O)CC(O)C(O)CCC(O)CC(O)CC(=O)OC(C)C(C)C1O)CC(O)C2C(=O)NC(CO)CO (stereo not drawn) [Compound 1]
- MIC A. thermomutatus (A. thermomutatus): 1.45 µM (≈ 1.45 µg/mL)
- Fold of Increase w.r.t. AmB (Solubility in D5W): >314
